Where a name gives a salt, the structure may show the parent alone. Read-outs that look alike come from different tables or passages of the source.
What was measured:
HIV protease = biological target: T1, HIV protease (Human immunodeficiency virus type 1 group M subtype B, UniProt P04585); assay: HIV Protease Assay; type: biochemical
T1 construct: and purified protease
In short: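 Purified protease cleaved 450 μM octapeptide substrate in 50 mM sodium acetate pH 5.5 with 100 μg/ml BSA for 30 minutes at 37° C; product analyzed by reverse-phase HPLC at UV220 after H3PO4 quench. Inhibitors tested at final 10 μM with 4% DMSO.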

[1] = test system: RF strain of HIV (CEM-SS cells); assay: Cell Culture Anti-HIV Activity (cell viability, formazan); type: cell-based; conditions: CEM-SS cells, RF strain of HIV, multiplicity of infection 0.04, 6 days at 37° C., 450 nm, read-out: HIV (CEM Cells) IC50
In short: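 CEM-SS cells (5000/well) infected with HIV RF at MOI 0.04, exposed to half-log serial compound dilutions, incubated 6 days at 37° C. Viability read by tetrazolium reduction to formazan, absorbance 450 nm. IC50 is the concentration raising formazan in infected cells to 50% of uninfected, drug-free cells.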

[2] = pH 5.5, 10 μM inhibitor, 4% DMSO, 450 μM substrate, pH 5.5, 30 minutes at 37° C., RP-HPLC, read-out: HIV Protease % Inhibition at 10 μM
[3] = Human immunodeficiency virus 1, CEM-SS, 144 h

## CC(C)(C)OC(=O)N[C@@H](Cc1ccccc1)[C@H](O)CNC[C@@H](O)[C@H](Cc1ccccc1)NC(=O)[C@@H](NC(=O)OCc1nc(-c2ccccc2)co1)C(C)(C)C [Compound 345, [S-(1R*,2S*(2S*,3R*)]]-[2,2-Dimethyl-1-[[[3-[[3-[[1,1-dimethylethoxy)-carbonyl]amino]-2-hydroxy-4-phenylbutyl]amino]-2-hydroxy-1-(phenylmethyl)propyl]amino]-carbonyl]propyl]carbamic acid, (4-phenyl-2-oxazolyl)methyl ester]
HIV protease; [2]
  inhibition at 10 µM: 99%
[1]; [3]
  IC50: 330 nM

## COC(=O)N[C@H](C(=O)N[C@@H](Cc1ccc(OCCc2ccccn2)cc1)[C@H](O)CNC[C@@H](O)[C@H](Cc1ccccc1)NC(=O)OC(C)(C)C)C(C)(C)C (relative stereo) [Compound 297, [1R*,2S*(2S*,3R*)]-N-[3-[[3-[[(1,1-Dimethylethoxy)carbonyl]amino]-2-hydroxy-4-phenylbutyl]amino]-2-hydroxy-1-[[4-[r2-(2-pyridinyl)ethoxy]phenyl]methyl]propyl]-N^2-(2-methoxycarbonyl)-3-methyl-L-valinamide]
HIV protease; [2]
  inhibition at 10 µM: 100%
[1]; [3]
  IC50: 50 nM

## CC(C)[C@H](NC(=O)[C@@H](N)Cc1ccccc1)C(=O)N[C@@H](Cc1ccccc1)[C@H](O)CNC[C@@H](O)[C@H](Cc1ccccc1)NC(=O)[C@@H](NC(=O)[C@@H](N)Cc1ccccc1)C(C)C [Compound 92, [S-(1R*,2S*)]-N,N'-[Iminobis[2-hydroxy-1-(phenylmethyl)-3,1-propanediyl]bis[N^2-(L-phenylalanyl)-L-valinamide[,trihydrochloride]
HIV protease; [2]
  inhibition at 10 µM: 100%
[1]; [3]
  IC50: 39000 nM

## CC(C)(C)OC(=O)N[C@@H](Cc1ccccc1)[C@H](O)CNC[C@@H](O)[C@H](Cc1ccccc1)NC(=O)[C@H](Cc1ccccc1)NC(=O)OCc1ccccc1 (relative stereo) [Compound 55, [1R*,2S*(2S*,3R*)]-N-[[3-[[(1,1-Dimethylethoxy)carbonyl]amino]-2-hydroxy-4-phenylbutyl]amino]-2-hydroxy-1-(phenylmethyl)propyl]-N^2-[(phenylmethoxy)carbonyl]-L-phenylalaninamide]
HIV protease; [2]
  inhibition at 10 µM: 91%
[1]; [3]
  IC50: 700 nM

## CC(C)(C)OC(=O)N[C@@H](Cc1ccccc1)[C@H](O)CNC[C@@H](O)[C@H](Cc1ccccc1)NC(=O)[C@@H](NC(=O)OCc1nc2ccccc2s1)C(C)(C)C [Compound 292, [S-[1R*,2S*(2S*,3R*)]]-[2,2-Dimethyl-1-[[[3-[[3-[[(1,1-dimethylethoxy)carbonyl]amino]-2-hydroxy-4-phenylbutyl]amino]-2-hydroxy-1-(phenylmethyl)propyl]amino]carbonyl]propyl]carbamic acid, (2-benzothiazolyl)methyl ester]
HIV protease; [2]
  inhibition at 10 µM: 99%
[1]; [3]
  IC50: 170 nM

## CC(C)[C@H](NC(=O)[C@H](O)Cc1ccccc1)C(=O)N[C@@H](Cc1ccccc1)[C@H](O)CNC[C@@H](O)[C@H](Cc1ccccc1)NC(=O)OC(C)(C)C [Compound 78, [S-[1R*,2S*[2S*,3R*,N1S*]-N-[3-[[3-[[(1,1-Dimethylethoxy)carbonyl]amino]-2-hydroxy-4-phenylbutyl]amino]-2-hydroxy-1-(phenylmethyl)[propyl]-N^2-(2-hydroxy-1-oxo-3-phenyl-propyl)-L-valinamide]
HIV protease; [2]
  inhibition at 10 µM: 99%
[1]; [3]
  IC50: 160 nM

## CC(C)(C)OC(=O)N[C@@H](Cc1ccccc1)[C@H](O)CNC[C@@H](O)[C@H](Cc1ccc(OCC(=O)O)cc1)NC(=O)OC(C)(C)C [Compound 346, [1S-[1R*,2S*(2S*,3R*)]-[4-[4-(Carboxymethoxy)phenyl)-3-[[3-[[1,1-dimethylethoxy)carbonyl]amino]-2-hydroxy-1-(phenylmeyhyl)propyl)carbamic acid, 1, 1dimethylethyl ester]
HIV protease; [2]
  inhibition at 10 µM: 98%
[1]; [3]
  IC50: > 50000 nM

## CC(C)(C)OC(=O)N[C@@H](Cc1ccccc1)[C@H](O)CNC[C@@H](O)[C@H](Cc1ccccc1)NC(=O)OC(C)(C)CCCO [Compound 229, [R-(R*,S*)]-[Iminobis[2-hydroxy-1-(phenylmethyl)-3,1-propanediyl)]biscarbamic acid, 4-hydroxy-1,1-dimethyl-butyl 1,1-dimethylethyl ester]
HIV protease; [2]
  inhibition at 10 µM: 82%
[1]; [3]
  IC50: 600 nM

## CC(C)(C)OC(=O)N[C@@H](Cc1ccccc1)[C@H](O)CNC[C@@H](O)[C@H](Cc1ccccc1)NC(=O)C1(O)CCCC1(C)C (single isomer, unassigned; isomer a) [Compound 321, [1S-[1R*,2S*(2S*,3R*)]]-[3-[[3-[[2,2-Dimethyl-1-hydroxycyclopentyl)-carbonyl]amino]-2-hydroxy-4-phenylbutyl]amino]-2-hydroxy-1-(phenylmethyl)propyl]carbamic acid, 1,1-dimethylethyl ester, isomer A]
HIV protease; pH 5.5, read-out: HIV Protease % Inhibition at 10 μM
  inhibition at 10 µM: 100%
[1]
  IC50: 200 nM

## CC(C)(C)OC(=O)N[C@@H](Cc1ccccc1)[C@H](O)CNC[C@@H](O)[C@H](Cc1ccccc1)NC(=O)OC1(C)CCOCC1 [Compound 166, [1S-(1R*,2S*)]-[Iminobis[2-hydroxy-1-(phenylmethyl)-3,1-propanediyl]]bis[carbamic acid], 1,1-dimethylethyl-4-methyltetrahydropyran-4-yl-ester]
HIV protease; [2]
  inhibition at 10 µM: 89%
[1]; [3]
  IC50: 1700 nM

## CC(C)(C)OC(=O)N[C@@H](C/C=C/c1ccc(OCC(=O)N2CCOCC2)cc1)[C@H](O)CNC[C@@H](O)[C@H](Cc1ccccc1)NC(=O)OC(C)(C)C [Compound 276, [1S-[1R*,2S*(2S*,3R*)]]-[3-[[3-[[(1,1-Dimethylethoxy)carbonyl]amino]-2-hydroxy-6-[4-[2-(4-morpholinyl)-2-oxoethoxy]phenyl]-5-hexenyl]amino]-2-hydroxy-1-(phenylmethyl)propyl]carbamic acid, 1,1-dimethylethyl ester]
HIV protease; [2]
  inhibition at 10 µM: 97%
[1]; [3]
  IC50: 130 nM

## CC(C)(C)OC(=O)N[C@@H](Cc1ccccc1)[C@H](O)CNC[C@@H](O)[C@H](Cc1ccccc1)NC(=O)OC(C)(C)[C@@H](O)CO [Compound 227, [1S-(1R*,2S*),(R*)]-[Iminobis[2-hydroxy-1-(phenylmethyl)-3,1-propanediyl]]biscarbamic acid, 2,3-dihydroxy-1,1-dimethylpropyl 1,1-dimethylethyl ester]
HIV protease; [2]
  inhibition at 10 µM: 99%
[1]; [3]
  IC50: 900 nM

## CC(C)[C@H](NC(=O)OC(C)(C)C)C(=O)N[C@@H](Cc1ccccc1)[C@H](O)CNC[C@@H](O)[C@H](Cc1ccccc1)NC(=O)OC(C)(C)C [Compound 58, [S-[1R*,2S*(2S*,3R*)]-N-[3-[[3-[[(1,1-Dimethylethoxy)carbonyl]amino]-2-hydroxy-4-phenylbutyl]amino]-2-hydroxy-1-(phenylmethyl)-propyl-N^2-[(1,1-dimethylethoxy)-carbonyl]-L-valinamide]
HIV protease; [2]
  inhibition at 10 µM: 57%
[1]; [3]
  IC50: 1000 nM

## CC(C)(C)OC(=O)N[C@@H](Cc1ccccc1)[C@H](O)CNC[C@@H](O)[C@H](Cc1ccccc1)NC(=O)OC1CCCOC1 (stereo partly drawn) [Compound 318, [1S-(1R*,2S*)]-[Iminobis[2-hydroxy-1-(phenylmethyl)-3,1-propanediyl)]bis[carbamic acid], 1,1-dimethylethyl-3-tetrahydropyranyl ester]
HIV protease; [2]
  inhibition at 10 µM: 100%
[1]; [3]
  IC50: 100 nM

Reference: patent US5760036A, “Aminediol protease inhibitors” (E. R. Squibb & Sons, Inc., priority 1995, dated 1998)
